In ChEMBL document CHEMBL1201862, “PubChem BioAssay data set” (2004):
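Assay format: 96-well plates, 48-hour exposure. GI50 is the concentration that inhibits growth by half.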 Active and inactive are the calls of the source. No stated cut-off is given here; in the data, active = GI50 up to about 1.1 µM and inactive = higher.

Legend:
Experiment in all cases: NCI anticancer screen, dose series, 48 h
A498 = test system: A498
A549 = test system: A549
HCC 2998 = test system: HCC 2998
HOP-62 = test system: HOP-62
HOP-92 = test system: HOP-92
HT-29 = test system: HT-29
IGROV-1 = test system: IGROV-1
K562 = test system: K562
Malme-3M = test system: Malme-3M
NCI-H23 = test system: NCI-H23
SK-MEL-5 = test system: SK-MEL-5
SNB-75 = test system: SNB-75
SW-620 = test system: SW-620
TK-10 = test system: TK-10
U-251 = test system: U-251
UO-31 = test system: UO-31

Measured: GI50

Cc1ccc(-c2cc(-c3ccco3)c(C#N)c(O)n2)cc1
inactive: A498 > 100 µM | A549 > 100 µM | HCC 2998 > 100 µM | HOP-62 50.2 µM | HOP-92 > 100 µM | HT-29 > 100 µM | IGROV-1 > 100 µM | K562 > 100 µM | Malme-3M > 100 µM | NCI-H23 > 100 µM | SK-MEL-5 > 100 µM | SNB-75 18.7 µM | SW-620 > 100 µM | TK-10 > 100 µM | U-251 82.8 µM | UO-31 > 100 µM

O=c1oc(=O)c2oc3ccccc3oc1=2
inactive: A498 > 100 µM | A549 > 100 µM | HCC 2998 > 100 µM | HOP-62 > 100 µM | HOP-92 > 100 µM | HT-29 > 100 µM | IGROV-1 > 100 µM | K562 > 100 µM | Malme-3M > 100 µM | NCI-H23 > 100 µM | SNB-75 > 100 µM | SW-620 > 100 µM | TK-10 > 100 µM | U-251 > 100 µM | UO-31 > 100 µM

CC(C)c1cccc(C(C)C)c1/N=C(/N)C#N
inactive: A498 > 100 µM | A549 > 44.2 µM | HCC 2998 > 100 µM | HOP-62 > 100 µM | HOP-92 > 41.5 µM | HT-29 > 58.6 µM | IGROV-1 > 100 µM | K562 25.4 µM | Malme-3M > 100 µM | NCI-H23 > 100 µM | SK-MEL-5 > 93.5 µM | SNB-75 > 100 µM | SW-620 22.1 µM | TK-10 > 100 µM | U-251 34 µM | UO-31 > 100 µM

FC(F)(F)c1cccc(/C=N/C23CC4CC(CC(C4)C2)C3)c1
inactive: A498 > 100 µM | A549 > 100 µM | HCC 2998 > 100 µM | HOP-62 > 100 µM | HT-29 > 100 µM | IGROV-1 > 100 µM | K562 > 100 µM | Malme-3M > 100 µM | NCI-H23 > 100 µM | SK-MEL-5 > 100 µM | SNB-75 51.9 µM | SW-620 > 100 µM | TK-10 > 100 µM | U-251 > 100 µM | UO-31 > 100 µM

c1cnc2c(c1)-n1cccc1C1(CCCCC1)NN2
inactive: A549 54 µM | HCC 2998 > 100 µM | HOP-62 > 100 µM | HT-29 > 100 µM | K562 45.1 µM | Malme-3M 62.1 µM | SK-MEL-5 71.3 µM | SNB-75 > 100 µM | SW-620 > 100 µM | TK-10 75.3 µM | UO-31 26.9 µM

Cc1ccc(S(=O)(=O)c2c(N)n(CCN(C)C)c3nc4ccccc4nc23)cc1
inactive: A549 > 100 µM | HCC 2998 > 100 µM | HOP-92 > 100 µM | HT-29 > 100 µM | IGROV-1 > 100 µM | K562 > 100 µM | Malme-3M > 100 µM | NCI-H23 > 100 µM | SK-MEL-5 > 100 µM | SNB-75 > 100 µM | TK-10 99.8 µM | U-251 > 100 µM | UO-31 > 100 µM

COC(=O)C(CCC#N)(CCC#N)C(=O)OC
inactive: A549 > 100 µM | HCC 2998 > 100 µM | HOP-62 > 100 µM | HT-29 > 100 µM | IGROV-1 > 100 µM | K562 > 100 µM | Malme-3M > 100 µM | NCI-H23 > 100 µM | SK-MEL-5 > 100 µM | SW-620 > 100 µM | U-251 > 100 µM | UO-31 > 100 µM

CC(=O)O[C@H]1C(N(C)C(=O)c2ccccc2)CC[C@]2(C)C3CC[C@@]4(C)C(CC(O)[C@@H]4C(C)N(C)C)[C@@H]3CCC12 (stereo partly drawn)
inactive: A498 > 100 µM | A549 > 100 µM | HCC 2998 > 100 µM | HOP-62 > 100 µM | HOP-92 > 100 µM | HT-29 > 100 µM | IGROV-1 > 100 µM | K562 > 100 µM | Malme-3M > 100 µM | NCI-H23 > 100 µM | SK-MEL-5 > 100 µM | SNB-75 > 100 µM | SW-620 > 100 µM | TK-10 > 100 µM | U-251 > 100 µM

Nc1c(-c2ccc(Cl)cc2Cl)[n+]([O-])c2ccccc2[n+]1[O-]
inactive: A498 > 100 µM | A549 > 100 µM | HCC 2998 > 100 µM | HOP-62 > 100 µM | HT-29 > 100 µM | IGROV-1 > 100 µM | K562 > 100 µM | Malme-3M > 100 µM | NCI-H23 > 100 µM | SK-MEL-5 > 100 µM | SNB-75 48.2 µM | SW-620 > 100 µM | TK-10 > 100 µM | U-251 > 100 µM | UO-31 > 100 µM

O=C1/C(=C(\Nc2ccccc2)c2ccccc2)C=NN1c1ccccc1
inactive: A498 > 100 µM | A549 > 100 µM | HCC 2998 > 100 µM | HT-29 47.9 µM | IGROV-1 > 100 µM | K562 72.8 µM | Malme-3M 59 µM | NCI-H23 56.8 µM | SK-MEL-5 26.7 µM | SNB-75 > 100 µM | SW-620 > 100 µM | TK-10 > 100 µM | U-251 > 100 µM | UO-31 > 100 µM

C=CCNC(=O)NCCCC(NC(C)=O)C(=O)NCc1ccccc1 (stereo not drawn)
inactive: A498 > 100 µM | A549 > 100 µM | HOP-62 > 100 µM | HOP-92 > 100 µM | HT-29 > 100 µM | IGROV-1 > 100 µM | K562 > 100 µM | Malme-3M > 100 µM | NCI-H23 > 100 µM | SK-MEL-5 > 100 µM | SNB-75 > 100 µM | SW-620 > 100 µM | TK-10 > 100 µM | U-251 > 100 µM | UO-31 > 100 µM

CCOC(=O)c1sc2c(sc(=O)n2-c2ccccc2)c1O
inactive: A498 > 100 µM | A549 > 100 µM | HCC 2998 > 100 µM | HOP-62 > 100 µM | HOP-92 > 100 µM | HT-29 > 100 µM | IGROV-1 > 100 µM | K562 > 100 µM | Malme-3M > 100 µM | NCI-H23 65.8 µM | SK-MEL-5 > 100 µM | SNB-75 > 100 µM | TK-10 > 100 µM | U-251 > 100 µM | UO-31 > 100 µM

O=C(O)[C@@H](NS(=O)(=O)c1ccc2ccccc2c1)c1ccccc1
inactive: A498 > 100 µM | HCC 2998 > 100 µM | HOP-92 > 100 µM | HT-29 > 100 µM | IGROV-1 > 100 µM | K562 > 100 µM | Malme-3M > 100 µM | NCI-H23 > 100 µM | SNB-75 > 100 µM | U-251 > 100 µM | UO-31 > 100 µM

CN1C(=O)N(C)C2(O)c3ccccc3C(=O)C12O (stereo not drawn)
inactive: A498 > 100 µM | A549 > 100 µM | HCC 2998 > 100 µM | HOP-62 > 100 µM | HT-29 > 100 µM | IGROV-1 > 100 µM | K562 > 100 µM | Malme-3M > 100 µM | NCI-H23 > 100 µM | SK-MEL-5 > 100 µM | SNB-75 > 100 µM | SW-620 > 100 µM | TK-10 > 100 µM | U-251 > 100 µM | UO-31 > 100 µM
